The term inhibition denotes the change of the read-out against control, counted positive when it falls. For orientation: Tm means the temperature at which the thermal transition is half complete.

Test [1] deals with Adenosine receptor A1 (Homo sapiens) (UniProt P30542). Briefly: (§1) GPCRScan assay: inhibition of A1. Details: radioligand conc. used [nm] 5.0, parental cells HEKT. Particulars: Compound concentration 10.0 uM.
A further test has as its target Adenosine receptor A1 (Homo sapiens, UniProt P30542). Described as §1. Also on record: radioligand conc. used [nm] 5.0, parental cells HEKT.
In test [2] the target is Cytoplasmic tyrosine-protein kinase BMX (Homo sapiens) (UniProt P51813). The test can be described thus: BMX SGC Tm panel (DSF). As to conditions: Compound concentration 20.0 uM.
The target of test [3] is T1, Zinc finger and BTB domain-containing protein 24 (Homo sapiens) (UniProt O43167).
T1 sequence (whole entry): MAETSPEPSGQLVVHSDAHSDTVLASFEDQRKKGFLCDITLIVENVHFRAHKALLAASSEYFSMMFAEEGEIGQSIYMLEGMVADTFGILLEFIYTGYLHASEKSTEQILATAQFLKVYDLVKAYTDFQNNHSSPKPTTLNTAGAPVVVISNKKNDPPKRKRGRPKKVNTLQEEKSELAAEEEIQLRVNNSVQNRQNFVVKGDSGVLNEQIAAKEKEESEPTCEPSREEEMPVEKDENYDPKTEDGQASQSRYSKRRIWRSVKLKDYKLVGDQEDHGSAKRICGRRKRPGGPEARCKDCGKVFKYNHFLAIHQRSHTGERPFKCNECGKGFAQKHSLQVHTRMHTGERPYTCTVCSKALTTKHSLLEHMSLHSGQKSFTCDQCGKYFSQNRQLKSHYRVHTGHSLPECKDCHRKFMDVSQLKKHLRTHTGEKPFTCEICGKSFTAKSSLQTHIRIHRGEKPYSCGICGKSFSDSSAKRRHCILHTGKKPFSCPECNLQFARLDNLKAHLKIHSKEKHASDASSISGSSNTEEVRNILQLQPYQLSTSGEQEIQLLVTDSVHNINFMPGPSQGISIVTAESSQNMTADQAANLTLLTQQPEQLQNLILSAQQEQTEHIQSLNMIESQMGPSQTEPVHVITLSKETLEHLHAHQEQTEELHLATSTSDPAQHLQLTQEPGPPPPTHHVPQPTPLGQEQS
As to conditions: SUD4, Compound concentration 1.0 uM.

In test [4] the target is Muscarinic acetylcholine receptor M3 (Homo sapiens) (UniProt P20309). As to conditions: Compound concentration 10.0 uM.
Muscarinic acetylcholine receptor M3 (Homo sapiens), sequence (P20309 whole entry, looked up): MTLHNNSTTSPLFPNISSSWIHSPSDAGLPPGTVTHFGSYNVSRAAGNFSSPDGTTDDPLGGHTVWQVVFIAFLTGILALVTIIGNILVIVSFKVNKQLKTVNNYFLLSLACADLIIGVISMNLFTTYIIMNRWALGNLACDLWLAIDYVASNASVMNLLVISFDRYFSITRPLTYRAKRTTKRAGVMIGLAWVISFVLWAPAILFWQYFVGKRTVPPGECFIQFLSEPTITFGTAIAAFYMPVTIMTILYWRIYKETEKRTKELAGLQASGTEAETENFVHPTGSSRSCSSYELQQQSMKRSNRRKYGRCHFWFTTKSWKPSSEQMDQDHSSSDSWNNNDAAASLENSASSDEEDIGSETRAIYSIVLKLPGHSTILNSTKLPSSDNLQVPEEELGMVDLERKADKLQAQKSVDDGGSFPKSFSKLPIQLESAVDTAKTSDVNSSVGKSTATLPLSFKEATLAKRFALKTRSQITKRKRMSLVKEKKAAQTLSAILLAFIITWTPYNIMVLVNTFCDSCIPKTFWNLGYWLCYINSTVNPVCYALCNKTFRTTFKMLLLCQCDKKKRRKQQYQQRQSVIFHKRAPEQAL
In test [5] the target is Fibroblast growth factor receptor 2 (Homo sapiens) (UniProt P21802). Briefly: FGFR2 SGC Tm panel (DSF). As to conditions: Compound concentration 20.0 uM.
For test [6], the target named is Tyrosine-protein kinase Mer (Homo sapiens) (UniProt Q12866). Briefly: MERTK SGC Tm panel (DSF). As to conditions: Compound concentration 20.0 uM.
Tyrosine-protein kinase Mer (Homo sapiens), sequence (Q12866 whole entry): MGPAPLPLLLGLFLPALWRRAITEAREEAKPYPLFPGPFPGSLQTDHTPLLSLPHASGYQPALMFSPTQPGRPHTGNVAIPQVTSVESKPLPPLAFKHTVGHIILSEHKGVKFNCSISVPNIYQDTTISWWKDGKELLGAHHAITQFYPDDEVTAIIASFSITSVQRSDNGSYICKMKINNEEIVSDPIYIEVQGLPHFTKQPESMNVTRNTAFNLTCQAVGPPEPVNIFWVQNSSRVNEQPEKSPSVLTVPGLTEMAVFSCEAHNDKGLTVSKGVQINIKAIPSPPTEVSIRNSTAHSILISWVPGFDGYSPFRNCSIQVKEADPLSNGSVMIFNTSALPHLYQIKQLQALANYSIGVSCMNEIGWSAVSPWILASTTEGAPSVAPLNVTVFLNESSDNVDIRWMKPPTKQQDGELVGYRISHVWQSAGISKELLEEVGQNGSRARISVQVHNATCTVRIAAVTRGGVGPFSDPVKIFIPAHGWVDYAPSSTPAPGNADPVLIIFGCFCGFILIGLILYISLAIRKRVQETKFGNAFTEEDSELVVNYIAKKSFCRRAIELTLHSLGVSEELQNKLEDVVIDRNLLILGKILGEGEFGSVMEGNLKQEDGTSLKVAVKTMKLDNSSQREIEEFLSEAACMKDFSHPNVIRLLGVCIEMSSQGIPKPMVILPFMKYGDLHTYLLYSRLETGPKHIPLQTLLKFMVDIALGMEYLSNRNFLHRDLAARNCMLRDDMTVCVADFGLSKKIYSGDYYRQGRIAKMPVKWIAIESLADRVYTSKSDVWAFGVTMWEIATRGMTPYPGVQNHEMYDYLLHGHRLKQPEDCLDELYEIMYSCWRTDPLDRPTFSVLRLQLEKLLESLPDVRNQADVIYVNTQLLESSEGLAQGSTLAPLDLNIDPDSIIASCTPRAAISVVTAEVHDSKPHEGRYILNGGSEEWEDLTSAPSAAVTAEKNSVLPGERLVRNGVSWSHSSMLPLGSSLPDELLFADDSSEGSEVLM
Test [7] concerns the target Serine/threonine-protein kinase 17A (Homo sapiens) (UniProt Q9UEE5). The test can be described thus: STK17A SGC Tm panel (DSF). Particulars: Compound concentration 20.0 uM.
The target of test [8] is Ribosomal protein S6 kinase alpha-5 (Homo sapiens) (UniProt O75582). Briefly: RPS6KA5 SGC Tm panel (DSF). As to conditions: Compound concentration 20.0 uM.
Test [9] addresses Casein kinase I isoform delta (Homo sapiens) (UniProt P48730). Briefly: CSNK1D SGC Tm panel (DSF). As to conditions: Compound concentration 20.0 uM.
For test [10], the target named is T2, Zinc finger and BTB domain-containing protein 2 (Homo sapiens) (UniProt Q8N680).
T2 sequence (whole entry): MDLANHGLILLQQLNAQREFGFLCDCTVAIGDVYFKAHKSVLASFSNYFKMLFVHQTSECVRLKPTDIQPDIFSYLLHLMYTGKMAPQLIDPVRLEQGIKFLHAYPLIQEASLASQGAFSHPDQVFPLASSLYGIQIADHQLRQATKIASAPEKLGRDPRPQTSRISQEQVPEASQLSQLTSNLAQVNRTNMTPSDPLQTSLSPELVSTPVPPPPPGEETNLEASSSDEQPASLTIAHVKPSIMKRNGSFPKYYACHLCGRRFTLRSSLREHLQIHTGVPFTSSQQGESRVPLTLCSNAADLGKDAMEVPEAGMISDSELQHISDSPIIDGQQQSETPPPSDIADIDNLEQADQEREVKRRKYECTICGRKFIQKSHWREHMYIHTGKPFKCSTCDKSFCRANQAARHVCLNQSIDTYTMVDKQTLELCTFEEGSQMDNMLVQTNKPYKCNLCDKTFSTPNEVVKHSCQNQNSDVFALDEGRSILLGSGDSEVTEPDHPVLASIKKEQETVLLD
Particulars: SUD4, Compound concentration 1.0 uM.

The target of test [11] is Sodium-dependent dopamine transporter (Homo sapiens, UniProt Q01959). The test can be described thus: GPCRScan assay: inhibition of DAT. Details: radioligand conc. used [nm] 3.6 – 16.0, parental cells stable HEK.
Sodium-dependent dopamine transporter, sequence (Q01959 whole entry): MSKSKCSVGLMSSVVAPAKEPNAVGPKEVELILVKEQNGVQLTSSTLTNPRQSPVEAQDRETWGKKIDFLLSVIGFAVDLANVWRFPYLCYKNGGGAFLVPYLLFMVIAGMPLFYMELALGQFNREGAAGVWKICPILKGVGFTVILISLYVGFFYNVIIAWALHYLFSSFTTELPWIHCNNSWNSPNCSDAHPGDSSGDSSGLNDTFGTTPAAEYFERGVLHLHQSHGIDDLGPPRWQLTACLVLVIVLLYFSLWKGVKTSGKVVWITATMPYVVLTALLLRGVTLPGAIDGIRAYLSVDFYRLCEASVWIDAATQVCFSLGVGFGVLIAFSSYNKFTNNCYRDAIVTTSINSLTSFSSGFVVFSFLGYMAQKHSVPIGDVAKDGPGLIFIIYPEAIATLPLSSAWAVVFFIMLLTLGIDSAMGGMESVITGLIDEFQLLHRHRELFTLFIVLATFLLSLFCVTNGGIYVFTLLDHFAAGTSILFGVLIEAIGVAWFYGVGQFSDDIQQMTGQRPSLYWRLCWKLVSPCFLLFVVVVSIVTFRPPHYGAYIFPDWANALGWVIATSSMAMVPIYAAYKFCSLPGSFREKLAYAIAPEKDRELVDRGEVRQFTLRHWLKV
The target of test [12] is Tyrosine-protein kinase Fes/Fps (Homo sapiens) (UniProt P07332). The test can be described thus: FES SGC Tm panel (DSF). As to conditions: Compound concentration 20.0 uM.
Tyrosine-protein kinase Fes/Fps (Homo sapiens), sequence (P07332 whole entry, the tested form may be a part): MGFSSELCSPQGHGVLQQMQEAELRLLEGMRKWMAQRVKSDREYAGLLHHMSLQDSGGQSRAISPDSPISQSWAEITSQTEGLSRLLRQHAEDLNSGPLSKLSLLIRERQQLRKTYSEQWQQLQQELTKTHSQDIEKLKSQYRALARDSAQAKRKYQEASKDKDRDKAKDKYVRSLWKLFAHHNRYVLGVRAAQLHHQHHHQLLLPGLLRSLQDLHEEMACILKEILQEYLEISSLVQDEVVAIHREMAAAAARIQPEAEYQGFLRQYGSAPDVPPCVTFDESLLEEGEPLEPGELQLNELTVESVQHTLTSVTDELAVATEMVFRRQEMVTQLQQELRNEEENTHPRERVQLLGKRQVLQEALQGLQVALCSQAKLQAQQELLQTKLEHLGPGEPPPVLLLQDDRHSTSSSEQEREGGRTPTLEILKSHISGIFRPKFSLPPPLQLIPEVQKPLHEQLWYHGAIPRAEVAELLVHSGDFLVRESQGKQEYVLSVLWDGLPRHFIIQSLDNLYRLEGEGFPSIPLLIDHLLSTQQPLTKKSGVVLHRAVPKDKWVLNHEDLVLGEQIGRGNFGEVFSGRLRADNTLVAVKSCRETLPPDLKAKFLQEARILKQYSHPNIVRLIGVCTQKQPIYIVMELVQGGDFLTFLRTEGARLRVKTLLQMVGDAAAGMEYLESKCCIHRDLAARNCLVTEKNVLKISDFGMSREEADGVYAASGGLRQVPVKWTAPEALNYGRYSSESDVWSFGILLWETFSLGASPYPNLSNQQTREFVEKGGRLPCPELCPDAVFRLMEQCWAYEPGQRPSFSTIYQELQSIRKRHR
Test [13] has as its target T3, Zinc finger and BTB domain-containing protein 9 (Homo sapiens) (UniProt Q96C00).
T3 sequence (whole entry): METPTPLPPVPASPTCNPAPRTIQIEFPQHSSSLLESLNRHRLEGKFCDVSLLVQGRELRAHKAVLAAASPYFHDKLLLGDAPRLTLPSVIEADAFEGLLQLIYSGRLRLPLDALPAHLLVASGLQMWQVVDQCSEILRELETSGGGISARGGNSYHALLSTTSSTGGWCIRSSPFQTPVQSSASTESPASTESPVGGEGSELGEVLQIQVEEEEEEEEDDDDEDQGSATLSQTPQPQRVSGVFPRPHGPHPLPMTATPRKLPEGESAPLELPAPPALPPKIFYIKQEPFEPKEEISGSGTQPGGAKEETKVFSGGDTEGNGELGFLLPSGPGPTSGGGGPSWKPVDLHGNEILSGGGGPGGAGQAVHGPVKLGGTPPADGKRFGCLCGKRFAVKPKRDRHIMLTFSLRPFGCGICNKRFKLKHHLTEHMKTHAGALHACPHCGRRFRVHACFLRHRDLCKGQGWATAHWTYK
Particulars: SUD4, Compound concentration 1.0 uM.

Test [14] has as its target Muscarinic acetylcholine receptor M4 (Homo sapiens) (UniProt P08173). As to conditions: Compound concentration 10.0 uM.
The target of test [15] is Cyclin-G-associated kinase (Homo sapiens) (UniProt O14976). The test can be described thus: GAK SGC Tm panel (DSF). As to conditions: Compound concentration 20.0 uM.
Cyclin-G-associated kinase (Homo sapiens), sequence (O14976 whole entry): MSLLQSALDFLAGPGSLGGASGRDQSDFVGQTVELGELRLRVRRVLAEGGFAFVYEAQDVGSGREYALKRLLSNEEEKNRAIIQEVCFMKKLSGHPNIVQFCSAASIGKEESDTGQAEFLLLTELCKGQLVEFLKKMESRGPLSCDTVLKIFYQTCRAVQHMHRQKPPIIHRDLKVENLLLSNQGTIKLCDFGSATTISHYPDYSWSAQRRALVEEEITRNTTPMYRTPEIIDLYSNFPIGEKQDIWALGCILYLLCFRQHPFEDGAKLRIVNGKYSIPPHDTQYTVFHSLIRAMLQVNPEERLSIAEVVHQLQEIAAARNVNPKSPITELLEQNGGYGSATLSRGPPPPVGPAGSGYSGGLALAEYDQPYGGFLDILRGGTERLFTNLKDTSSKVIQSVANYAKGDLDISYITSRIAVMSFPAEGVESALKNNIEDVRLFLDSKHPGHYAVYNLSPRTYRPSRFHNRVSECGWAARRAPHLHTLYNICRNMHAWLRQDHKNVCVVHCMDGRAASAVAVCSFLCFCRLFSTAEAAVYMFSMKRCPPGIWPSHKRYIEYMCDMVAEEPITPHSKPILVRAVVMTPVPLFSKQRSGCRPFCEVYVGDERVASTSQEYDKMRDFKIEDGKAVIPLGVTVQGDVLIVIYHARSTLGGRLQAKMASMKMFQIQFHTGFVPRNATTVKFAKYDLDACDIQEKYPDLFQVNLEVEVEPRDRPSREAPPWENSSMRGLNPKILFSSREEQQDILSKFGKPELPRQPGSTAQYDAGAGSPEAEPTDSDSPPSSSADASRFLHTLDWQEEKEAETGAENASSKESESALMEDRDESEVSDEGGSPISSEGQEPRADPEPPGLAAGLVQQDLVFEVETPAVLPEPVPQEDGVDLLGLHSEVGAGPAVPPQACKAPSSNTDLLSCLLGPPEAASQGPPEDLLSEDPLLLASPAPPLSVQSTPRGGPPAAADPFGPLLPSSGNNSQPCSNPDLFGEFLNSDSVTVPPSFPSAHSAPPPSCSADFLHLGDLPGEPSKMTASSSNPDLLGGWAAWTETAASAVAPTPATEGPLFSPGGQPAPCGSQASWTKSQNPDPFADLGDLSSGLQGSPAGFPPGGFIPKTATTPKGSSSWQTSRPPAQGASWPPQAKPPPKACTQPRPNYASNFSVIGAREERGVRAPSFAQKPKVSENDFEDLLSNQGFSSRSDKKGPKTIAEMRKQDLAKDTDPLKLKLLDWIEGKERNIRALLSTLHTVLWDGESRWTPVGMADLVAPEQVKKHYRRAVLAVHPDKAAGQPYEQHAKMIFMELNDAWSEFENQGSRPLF
For test [16], the target named is Aurora kinase B (Homo sapiens) (UniProt Q96GD4). The test can be described thus: AURKB SGC Tm panel (DSF). Particulars: Compound concentration 20.0 uM.
Aurora kinase B (Homo sapiens), sequence (Q96GD4 whole entry): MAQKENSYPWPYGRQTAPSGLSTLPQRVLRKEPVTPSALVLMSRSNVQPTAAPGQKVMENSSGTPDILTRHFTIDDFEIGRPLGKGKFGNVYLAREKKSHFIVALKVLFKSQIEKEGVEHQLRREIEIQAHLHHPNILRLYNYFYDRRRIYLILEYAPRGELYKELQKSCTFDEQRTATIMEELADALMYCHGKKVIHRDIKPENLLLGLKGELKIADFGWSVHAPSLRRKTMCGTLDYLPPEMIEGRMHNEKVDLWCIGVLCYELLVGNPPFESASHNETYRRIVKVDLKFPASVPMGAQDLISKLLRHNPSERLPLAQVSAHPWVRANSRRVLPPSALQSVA
The target in test [17] is Dual specificity tyrosine-phosphorylation-regulated kinase 1A (Homo sapiens) (UniProt Q13627). Briefly: DYRK1A SGC Tm panel (DSF). Particulars: Compound concentration 20.0 uM.

Adenosine receptor A1, sequence (P30542 whole entry): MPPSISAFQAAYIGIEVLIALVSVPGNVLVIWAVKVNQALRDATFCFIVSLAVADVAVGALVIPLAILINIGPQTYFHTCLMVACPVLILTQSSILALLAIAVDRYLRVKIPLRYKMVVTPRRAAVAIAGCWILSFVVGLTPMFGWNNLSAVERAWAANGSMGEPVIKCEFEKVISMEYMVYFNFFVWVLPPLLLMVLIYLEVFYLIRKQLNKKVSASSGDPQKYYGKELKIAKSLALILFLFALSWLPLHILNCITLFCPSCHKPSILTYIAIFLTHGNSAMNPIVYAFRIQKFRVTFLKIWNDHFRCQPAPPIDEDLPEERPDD
Adenosine receptor A1 (Homo sapiens), sequence (P30542 whole entry): as above

As for `C[C@@H]1CN(c2ncc(Cl)c(Nc3ccc4c(c3)n(CCC(C)(C)O)c(=O)n4C)n2)C[C@H](C)C1(F)F`, the inhibition is 93.1% in [1], 12% in test [4] and -2.86% in test [14]. The Ki at Adenosine receptor A1 (read-out: Ki) is 1.63 µM; on Adenosine receptor A1 (read-out: pKi (converted)), 1.1 µM; in [11] (read-out: Ki) it was 5.09 µM; in [11] (read-out: pKi (converted)), 4.9 µM. Also, the Tm was 48 °C in test [2]; 50 °C in test [5]; 47 °C in [6]; 42 °C in test [7]; 37 °C in [8]; 52 °C in [9]. Besides, the Tm in test [12] is 44 °C; in [15] it was 52 °C; in test [16], 46 °C; in test [17] it was 45 °C. Besides, the LogFC in [3] is 0.00149; in test [10], 0.029; in test [13], 0.0873.

The values are drawn from ChEMBL document CHEMBL5058646 (2022).
